How the values were obtained:
human LXRβ = biological target: T1, human LXRβ (Homo sapiens, UniProt P55055); assay: Ligand-binding test procedure for human LXRβ; settings: 3H T0901317 tracer; biotinylated hLXRβ from E. coli extract
T1 construct: biotin (biotinylated); made in house; host or cells: E. coli
T1 sequence (P55055 1-460): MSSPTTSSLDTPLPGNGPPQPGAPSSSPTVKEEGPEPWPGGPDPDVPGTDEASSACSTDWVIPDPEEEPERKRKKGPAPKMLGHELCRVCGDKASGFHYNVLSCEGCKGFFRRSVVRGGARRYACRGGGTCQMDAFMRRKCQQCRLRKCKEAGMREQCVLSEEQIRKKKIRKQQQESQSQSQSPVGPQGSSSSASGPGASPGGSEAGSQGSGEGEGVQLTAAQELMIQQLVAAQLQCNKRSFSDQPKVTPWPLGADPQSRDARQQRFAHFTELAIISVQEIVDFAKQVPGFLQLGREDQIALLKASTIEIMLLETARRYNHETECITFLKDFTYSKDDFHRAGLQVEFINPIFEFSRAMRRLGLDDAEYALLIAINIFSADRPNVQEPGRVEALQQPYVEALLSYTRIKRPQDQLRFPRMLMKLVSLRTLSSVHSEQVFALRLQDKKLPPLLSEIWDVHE
Description: IV. Ligand-Binding Test Procedure for Human LXRβ.
(§1) Buffer: 100 mM KCl, 100 mM TRIS (pH 7.4 at +4° C.), 8.6% glycerol, 0.1 mM PMSF*, 2 mM MTG*, 0.2% CHAPS (* not used in wash buffer)
Receptor source: E. coli extract from cells expressing biotinylated hLXRβ. Extract was made in a similar buffer as above, but with 50 mM TRIS.
(§2) Washed streptavidin and coated flash plates with wash buffer. Diluted receptor extract to give Bmax ˜4000 cpm and add to the wells. Wrapped the plates in aluminum foil and stored them at +4° C. over night.
Made a dilution series in DMSO of the test ligands. Made a 5 nM solution of the radioactive tracer in buffer. Mixed 250 μl diluted tracer with 5 μl of the test ligand from each concentration of the dilution series. Washed the receptor-coated flash plates. Added 200 μl per well of the ligand/radiolabel mixture to the receptor-coated flash plates. Wrapped the plates in aluminum foil and incubate at +4° C. over night.
(§3) Aspirated wells, and wash the flashed plates. Sealed the plate. Measured the remaining radioactivity in the plate.

human LXRα = biological target: T2, human LXRα (Homo sapiens, UniProt Q13133); assay: Ligand-binding test procedure for human LXRα; settings: 3H T0901317 tracer; biotinylated hLXRα from E. coli extract
T2 construct: biotin (biotinylated); made in house; host or cells: E. coli
T2 sequence (Q13133 1-447): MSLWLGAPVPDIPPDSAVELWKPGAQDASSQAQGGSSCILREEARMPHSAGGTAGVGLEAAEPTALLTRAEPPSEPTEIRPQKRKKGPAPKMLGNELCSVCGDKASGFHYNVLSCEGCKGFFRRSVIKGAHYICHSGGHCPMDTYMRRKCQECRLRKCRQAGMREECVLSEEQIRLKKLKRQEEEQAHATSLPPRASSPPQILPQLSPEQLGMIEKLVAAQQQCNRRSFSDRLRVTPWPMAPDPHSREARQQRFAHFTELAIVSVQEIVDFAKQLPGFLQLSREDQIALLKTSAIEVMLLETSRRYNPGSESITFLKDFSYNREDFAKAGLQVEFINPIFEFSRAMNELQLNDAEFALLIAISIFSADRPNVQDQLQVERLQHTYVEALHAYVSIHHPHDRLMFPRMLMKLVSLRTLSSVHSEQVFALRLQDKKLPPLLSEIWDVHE
Description: II. Ligand-Binding Test Procedure for Human LXRα.
as §1
Receptor source: E. coli extract from cells expressing biotinylated hLXRα. Extract was made in a similar buffer as above, but with 50 mM TRIS.
as §2
Made a dilution series in DMSO of the test ligands. Made a 5 nM solution of the radioactive tracer in buffer. Mixed 250 μl diluted tracer with 5 μl of the test ligand from each concentration of the dilution series.
Washed the receptor-coated flash plates.
Added 200 μl per well of the ligand/radiolabel mixture to the receptor-coated flash plates. Wrapped the plates in aluminum foil and incubate at +4° C. over night.
as §3

ABCA1 gene = assay: Quantitative analysis of ABCA1 gene regulation in THP-1 cells; format: cell-based; settings: Gene regulation by LXR (human), differentiated THP-1 cells; for EC50: 18 hrs, ABCA1 mRNA by real-time PCR; for Agonism ABCA1: LXR agonist reference dosed at 1.0 uM as positive control
Description: III. Quantitative Analysis of ABCA1 Gene Regulation in THP-1 Cells.
The compounds of formula (I) effect on the regulation of the ABCA1 gene was evaluated using the following procedure.
Cell culture: The THP-1 monocytic cell line (ATCC # TIB-202) was obtained from American Type Culture Collection (Manassas, Va.) and cultured in RPMI 1640 medium (Gibco, Carlsbad, Calif.) containing 10% FBS, 2 mM L-glutamine, and 55 uM beta-Mercaptoethanol (BME). Cells were plated in 96-well format at a density of 7.5×10^4 in complete medium containing 50-100 ng/ml phorbal 12,13-dibutyrate (Sigma, St. Louis, Mo.) for three days to induce differentiation into adherent macrophages. Differentiated THP-1 cells were treated with test compounds or ligands dissolved in DMSO (Sigma, D-8779) in culture medium lacking phorbal ester. […] Dose response effects were measured in duplicate, in the range of 0.001 to 30 micromolar concentrations and treated cells were incubated for an additional 18 hrs prior to RNA isolation. Unstimulated cells treated with vehicle were included as negative controls on each plate. An LXR agonist reference, N-(2,2,2-trifluoro-ethyl)-N-[4-(2,2,2-trifluoro-1-hydroxy-1-trifluoromethyl-ethyl)-phenyl]-benzenesulfonamide (Schultz, Joshua R., Genes & Development (2000), 14(22), 2831-2838), was dosed at 1.0 uM and served as a positive control. In antagonist mode, the compound under study is analyzed in the presence of 150 nM GW3965, trifluoromethyl-benzyl)-(2,2-diphenyl-ethyl)-amino]-propoxy]-phenyl)-acetic acid (Collins, J. L., J. Med. Chem. (2000), 45:1963-1966.). Results of antagonist analysis are expressed as % antagonism and IC50 (in μM). RNA isolation and quantitation: Total cellular RNA was isolated from treated cells cultured in 96-well plates using PrepStation 6100 (Applied Biosystems, Foster City, Calif.), according to the manufacturer's recommendations. RNA was resuspended in ribonuclease-free water and stored at −70° C. prior to analysis. RNA concentrations were quantitated with RiboGreen test procedure, #R-11490 (Molecular Probes, Eugene, Oreg.). Gene expression analysis: Gene-specific mRNA quantitation was performed by real-time PCR with the Perkin Elmer Corp. chemistry on an ABI Prism 7700 Sequence detection system (Applied Biosystems, Foster City, Calif.) according to the manufacturer's instructions. Samples (50-100 ng) of total RNA were assayed in duplicate or triplicate in 50 ul reactions using one-step RT-PCR and the standard curve method to estimate specific mRNA concentrations. Sequences of gene-specific primer and probe sets were designed with Primer Express Software (Applied Biosystems, Foster City, Calif.). The human ABCA1 primer and probe sequences are: forward, […], reverse, […], and probe, 6FAM-[…]-TAMRA. RT and PCR reactions were performed according to PE Applied Biosystem's protocol for Taqman Gold RT-PCR or Qiagen's protocl for Quantitect probe RT-PCR. Relative levels of ABCA1 mRNA are normalized using GAPDH mRNA or 18S rRNA probe/primer sets purchased commercially (Applied Biosystems, Foster City, Calif.).
Mean, standard deviation and statistical significance of duplicate evaluations of RNA samples were assessed using ANOVA, one-way analysis of variance using SAS analysis.

IC50 (human LXRβ) [nM] | IC50 (human LXRα) [nM] | EC50 (ABCA1 gene) [nM] | Structure (SMILES) | Agonism ABCA1 (ABCA1 gene) [%]
1.96 | 44 | – | CS(=O)(=O)c1cccc(Oc2cccc(-c3c(Cc4ccccc4)nc4c(C(F)(F)F)ccnn34)c2)c1 [Example 7, 2-Benzyl-3-{3-[3-(methylsulfonyl)phenoxy]phenyl}-8-(trifluoromethyl)imidazo[1,2-b]pyridazine] | –
117 | 1090 | 2050 | CCS(=O)(=O)c1cccc(Oc2cccc(-c3c(C(C)C)nc4c(C(F)(F)F)ccnn34)c2)c1 [Example 11, 3-{3-[3-(ethylsulfonyl)phenoxy]phenyl}-2-isopropyl-8-(trifluoromethyl)imidazo[1,2-b]pyridazine] | 92

Second part, the compound before the results:

Structure (SMILES) | IC50 (human LXRβ) [nM] | IC50 (human LXRα) [nM] | EC50 (ABCA1 gene) [nM] | Agonism ABCA1 (ABCA1 gene) [%]
CCc1nc2c(C(F)(F)F)ccnn2c1-c1cccc(Oc2cccc(S(C)(=O)=O)c2)c1 [Example 8, 2-ethyl-3-{3-[3-(methylsulfonyl)phenoxy]phenyl}-8-(trifluoromethyl)imidazo[1,2-b]pyridazine] | 133 | 2040 | 1850 | 85
CCc1nc2c(C(F)(F)F)ccnn2c1-c1cccc(Oc2cccc(S(=O)(=O)CC)c2)c1 [Example 9, 2-Ethyl-3-{3-[3-(ethylsulfonyl)phenoxy]phenyl}-8-(trifluoromethyl)imidazo[1,2-b]pyridazine] | 148 | 1570 | – | –
CC(C)c1nc2c(C(F)(F)F)ccnn2c1-c1cccc(Oc2cccc(S(C)(=O)=O)c2)c1 [Example 10, 2-isopropyl-3-{3-[3-(methylsulfonyl)phenoxy]phenyl}-8-(trifluoromethyl)imidazo[1,2-b]pyridazine] | 99 | 1460 | 1840 | 81
